Test results published in patent publication US9446065B2, “Pharmaceutical composition for use in the treatment and/or the prevention of osteoarticular diseases” (BONE THERAPEUTICS, priority 2008, dated 2016).
Several values for one entry are separate records, joined by “and”; a condition that tells them apart may be missing. Identical values can stand only once. Like-named read-outs stand apart in the source and are kept apart here.

What was measured:
[1] = system: PBMC (Peripheral blood mononuclear cells); assay: PBMC proliferation assay (3H-thymidine); format: cell-based, human; conditions: for Proliferation: HA 200 μg/mL, A2A 5 μM
Method: (§1) The effects of the combination clonidine and hyaluronic acid were tested in a model of Peripheral Blood Mononuclear Cells. In brief, PBMCs (Peripheral blood mononuclear cells) from heparinized venous blood of healthy volunteers were isolated by Ficoll-gradient centrifugation. MNC (Mononuclear cells) were washed three times in PBS and resuspended in RPMI-1640 medium supplemented with 100 U/mL penicillin, 100 μg/mL streptomycin, and 10% heat-inactivated FBS. Cells were seeded at 100.000 cells in 96-wel plate in a total volume of 200 μL/well.
(§2) PBMC, at 100.000 cells/200 μL, were plated in 96-well microtiter plates and stimulated or not 10 μg/mL phytohemagglutinin (PHA). Effects of hyaluronic acid “HA” (200 μg/mL) and p-aminoclonidine “A2A” (5 μM) were tested on PBMC.
Proliferation Assay. The culture was incubated with 1 μCi/mL 3H-thymidine for 24 h before end of culture to measure the proliferation. Then, cells were washed twice with ice-cold PBS and twice with ice-cold 5% trichloroacetic acid (TCA). Finally, cells were lysed with 0.1N NaOH-0.1% Triton-X100. Supernatants were collected and analyzed on a beta-counter in presence of scintillation liquid. Results were done in cpm (“count per minute”=disintegration number of radioactive element observed in series of successive counts of one minute).
(§3) The release of IL-1beta by PBMC and the proliferation of PBMC, induced by PHA stimulation, were set as controls, and compared with the measures for PBMC treated with HA and/or A2A.

IL-1β = IL-1β detection (ELISA) in PBMC culture; format: cell-based, human; conditions: for IL-1β detection: HA 200 μg/mL, A2A 5 μM
Method: as §1, §2
IL-1β detection (By ELISA). Levels of IL-1β from PBMC or culture supernatants were measured by Quantikine ELISA kit (R&D Systems Inc, Minneapolis, USA). The minimum detectable concentration of IL-1β was estimated at 1.0 pg/mL.
as §3

IL-I beta = assay: Inhibition of IL-I beta release by LPS-stimulated TH1 cells; format: cell-based
Method: The inhibition of IL-I beta release by alpha-2-adrenergic agonists, induced by LPS stimulation of TH1 cells, is measured under control conditions (dexamethasone).

acute pain = conditions: cited from earlier work
mono-arthritis symptoms = system: mono-arthritis symptoms; set-up: Reduction in Pain: concentration or dose not given beside the values; conditions: cited from earlier work
[2] = PBMC + PHA 10 μg/mL, PBMC + PHA = 100
[3] = PBMC not stimulated, PBMC + PHA = 100
[4] = average data from meta-analyses and/or published studies

Nc1cc(Cl)c(N=C2NCCN2)c(Cl)c1 [A2A, p-aminoclonidine]
effect on PBMC proliferation, in words ([1]; PBMC + PHA): not able to inhibit PBMC proliferation
Proliferation ([1]; PBMC + PHA 10 μg/mL): 16212 cpm
Proliferation [1, 2]: 101%
Proliferation ([1]; PBMC not stimulated): 786 cpm
Proliferation [1, 3]: 4.9%
effect on IL-1beta secretion, in words (IL-1β; PBMC + PHA): totally suppresses the increase in IL-1beta secretion
effect on basal conditions, in words (IL-1β; unstimulated PBMC): no effect

Brc1c(NC2=NCCN2)ccc2nccnc12 [Brimonidine]
effect on IL-I beta release, in words (IL-I beta): no effects

C[C@@H]1C[C@H]2[C@@H]3CCC4=CC(=O)C=C[C@]4(C)[C@@]3(F)[C@@H](O)C[C@]2(C)[C@@]1(O)C(=O)CO [Dexamethasone]
inhibition at 0.1 µM (IL-I beta; 10^−7 M, read-out: inhibition of IL-I beta secretion): ~65%

N=C(N)N/N=C/c1c(Cl)cccc1Cl [Guanabenz]
effect on IL-I beta release, in words (IL-I beta): no effects

Clc1cccc(Cl)c1NC1=NCCN1 [clonidine, N-(2,6-dichlorophenyl)-4,5-dihydro-1H-imidazol-2-amine]
minimum effect duration in acute pain studies (acute pain; Alagol et al, 2005): 4 h
duration of effects in acute pain studies (not to exceed) (acute pain; Gentili et al, 2001): ≤ 72 h

hyaluronic acid [HA]
Improvement in Function (mono-arthritis symptoms; Arich et al., 2005): −11%
Reduction in Pain (mono-arthritis symptoms; Arich et al., 2005): 0%
Reduction in Pain (max effect reported) (mono-arthritis symptoms; Arich et al., 2005): −17%
Improvement in Function (mono-arthritis symptoms; Kolarz et al., 2003): −23%
Reduction in Pain (mono-arthritis symptoms; Kolarz et al., 2003): −55%
improvement in function, maximal effect reported in literature (mono-arthritis symptoms; Kolarz et al., 2003): 23%
improvement in pain, maximal effect reported in literature (mono-arthritis symptoms; Kolarz et al., 2003): 55%
Reduction in Pain (mono-arthritis symptoms; Lo et al., 2004): −7%
Reduction in Pain (max effect reported) (mono-arthritis symptoms; Lo et al., 2004): −47%
Reduction in Pain (mono-arthritis symptoms; Wang et al., 2004): −8%
Reduction in Pain (max effect reported) (mono-arthritis symptoms; Wang et al., 2004): −24%
Improvement in Function (mono-arthritis symptoms; [4]): −15%
Reduction in Pain (mono-arthritis symptoms; [4]): −10%
Side-Effects (major side effects only) (mono-arthritis symptoms; [4]): None
benefit on swelling (mono-arthritis symptoms; literature): no reported benefit on swelling
decrease of pain score (VAS) in meta-analyses (mono-arthritis symptoms; meta-analyses that reassessed efficacy): ≤ 15 mm
reduction of PBMC proliferation ([1]; PBMC + PHA): 2 factor
Proliferation ([1]; PBMC + PHA 10 μg/mL): 9087 cpm
Proliferation [1, 2]: 57% and 56%
Proliferation ([1]; PBMC not stimulated): 364 cpm
Proliferation [1, 3]: 2.2%
increase of IL-1beta secretion over the stimulated conditions (IL-1β; PBMC + PHA): 3 times
IL-1β detection (IL-1β; PBMC + PHA 10 μg/mL): 6394 pg/mL
IL-1β detection (IL-1β; [2]): 293% and 292%
IL-1β detection (IL-1β; PBMC not stimulated): 2095 pg/mL
IL-1β detection (IL-1β; [3]): 96%
